Earlier results in patent publication US11571411B2, “Use of a bisamide derivative of malonic acid for treating allergic and other diseases in humans and animals” (PHARMENTERPRISES ALLERGY LLC, priority 2018, dated 2023).

Assays:
[1] = in vivo; cited from earlier work
[2] = target: T1, H3 receptor (Homo sapiens, UniProt Q9Y5N1); settings: humans, topical administration; cited from earlier work
T1 construct: host or cells: human volunteers (nasal mucosa, in vivo)
T1 sequence (Q9Y5N1 whole entry): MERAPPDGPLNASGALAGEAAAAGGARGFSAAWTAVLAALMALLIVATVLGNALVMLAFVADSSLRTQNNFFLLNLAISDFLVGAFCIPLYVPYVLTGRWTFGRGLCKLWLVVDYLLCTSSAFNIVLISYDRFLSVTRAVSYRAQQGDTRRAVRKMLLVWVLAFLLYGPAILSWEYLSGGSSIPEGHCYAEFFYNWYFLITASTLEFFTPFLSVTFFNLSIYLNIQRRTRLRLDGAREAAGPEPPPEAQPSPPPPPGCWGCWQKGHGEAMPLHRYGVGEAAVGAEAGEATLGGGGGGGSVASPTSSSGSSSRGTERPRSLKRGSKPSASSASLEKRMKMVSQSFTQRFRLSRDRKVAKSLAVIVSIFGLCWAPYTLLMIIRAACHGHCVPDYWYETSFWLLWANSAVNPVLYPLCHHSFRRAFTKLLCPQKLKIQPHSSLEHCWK

S=C(NC1CCCCC1)N1CCC(c2cnc[nH]2)CC1 [Thioperamide]
crossing of the blood-brain barrier [1]: cross the blood-brain barrier | effect on nasal blockage induced by R-alpha-methylhistamine [2]: reduced
